Assay results reported in patent US5739351A, “Perhydroisoindole derivatives as substance P antagonists” (Rhone-Poulenc Rorer S.A., priority 1994, dated 1998).

Assays:
[1] = system: increase in capillary permeability brought about by septide (a substance P agonist); assay: inhibition of the increase in capillary permeability brought about by septide; format: in vivo; conditions: Cavia porcellus, po; guinea pig, capillary permeability increase induced by septide
From the text: The study of certain isoindole derivatives of general formula (I) in the technique of A. Saria et al., Arch.

formaldehyde pain = formaldehyde pain test in guinea pigs; format: in vivo; conditions: Cavia porcellus, po, guinea pig
Procedure: Moreover, certain products according to the invention were studied in the formaldehyde pain test in guinea pigs. The ED50 of the product is determined in this way.

SMILES | ED50 [1] [mg/kg] | ED50 (formaldehyde pain) [mg/kg]
COc1ccccc1[C@@]1(O)C[C@@H](CC#N)C[C@@H]2CN(C(=O)Cc3ccccc3N3CCCC3)C[C@@H]21 (racemic) [Example 2, (3aRS,4RS,6RS,7aSR)-6-Cyanomethyl-4-(2-methoxyphenyl)-2-{[2-(1-pyrrolidinyl)phenyl]acetyl} perhydroisoindol-4-ol] | 1 | 
N#CC[C@@H]1C[C@@H]2CN(C(=O)Cc3ccccc3O)C[C@@H]2[C@@](O)(c2ccccc2F)C1 (racemic) [Example 14, (3aRS,4RS,6SR,7aSR)-6-Cyanomethyl-4-(2-fluorophenyl)-2-(2-hydroxyphenylacetyl)perhydroisoindol-4-ol] | 0.2 to 0.4 | 
COc1ccccc1CC(=O)N1C[C@@H]2C[C@@H](CNC#N)C[C@@](O)(c3ccccc3OC)[C@@H]2C1 (relative stereo) [Example 18, (3aRS,4RS,6SR,7aSR)-6-Cyanoaminomethyl-4-(2-methoxyphenyl)-2-[(2-methoxyphenyl)acetyl]perhydroisoindolol] | 1 | 
COc1ccccc1[C@H](C)C(=O)N1C[C@@H]2C[C@@H](CC#N)C[C@@](O)(c3ccccc3OC)[C@@H]2C1 [Example 1, (3aS,4S,6S,7aR)-6-Cyanomethyl-4-(2-methoxyphenyl)-2-[(S)-2-(2-methoxylphenyl)propionyl]perhydroisoindol-4-ol] | 0.004 | 1
COc1ccccc1[C@]1(O)C[C@H](CC#N)C[C@H]2CN(C(=O)[C@@H](C)c3ccccc3O)C[C@H]21 [Example 4, (3aS,4S,6S,7aR)-6-Cyanomethyl-2-[(S)-2-(2-hydroxyphenyl)propionyl]-4-(2-methoxyphenyl)perhydroisoindol-4-ol] | 0.004 | 
COc1ccccc1CC(=O)N1C[C@@H]2C[C@@H](CC#N)C[C@@](O)(c3ccccc3OC)[C@@H]2C1 [Example 5, (3aS, 4S, 6S, 7aR)-6-Cyanomethyl-4-(2-methoxyphenyl)-2-[(2-methoxyphenyl)acetyl]perhydroisoindol-4-ol] | 0.32 | 3 to 30
COc1ccccc1[C@]1(O)C[C@H](CC#N)C[C@H]2CN(C(=O)Cc3ccc(Cl)c(Cl)c3)C[C@H]21 [Example 7, (3aS,4S,6S,7aR)-6-Cyanomethyl-2-[(3,4-dichlorophenyl)acetyl]-4-(2-methoxyphenyl)perhydroisoindol-4-ol] | 0.36 | 
COc1ccccc1[C@]1(O)C[C@H](CC#N)C[C@H]2CN(C(=O)[C@@H](N)c3ccccc3)C[C@H]21 [Example 9, (3aS,4S,6S,7aR)-2-[(S)-2-Amino-2-phenylacetyl]-6-cyanomethyl-4-(2-methoxyphenyl)perhydroisoindol-4-ol] |  | 3 to 30
COc1ccccc1C(N)C(=O)N1C[C@@H]2C[C@@H](CC#N)C[C@@](O)(c3ccccc3OC)[C@@H]2C1 (stereo partly drawn) [Example 10] | 0.05 | 
COc1ccccc1[C@H](C)C(=O)N1C[C@@H]2C[C@@H](CC#N)C[C@@](O)(c3ccccc3F)[C@@H]2C1 [Example 13, (3aS,4S,6S,7aR)-6-Cyanomethyl-4-(2-fluorophenyl)-2-[(S)-2-(2-methoxyphenyl)propionyl]perhydroisoindol-4-ol] | 0.02 | 
